This is an account of results in patent publication EP0707004A1, “1-Arylalcenyl 4-arylmethylpiperazinderivatives, process for their preparation and pharmaceutical composition containing them” (ADIR ET COMPAGNIE, priority 1994, dated 1996).

In the test the test system is hyperactivité induite par la N-allylnormétazocine. Kind of test: Antagonism of N-allylnormetazocine-induced hyperactivity. The test is classed as in vivo. The conditions noted are these: dose 32 mg.kg⁻¹; rats; N-allylnormetazocine 50 mg/kg subcutaneous. The source says: Ce test a été mis au point par Snyder S.H. et al (J. Neuropsychiatry, 1989, 1 : 7-15). La N-allylnormetazocine ((+) SKF 10047) induit un comportement psychotique chez l'homme et est le prototype d'agoniste pour les récepteurs σ.
La mesure de l'hyperactivité induite par ce produit est donc utilisée comme modèle alternatif pour détecter l'activité antipsychotique des composés agissant sur les récepteurs σ.
Un groupe de 12 rats est traité avec le composé à tester avant l'administration sous-cutanée de 50 mg/kg de la N-allylnormetazocine. 30 minutes plus tard, les animaux sont placés dans un actimètre pendant 30 minutes.
L'halopéridol est utilisé comme composé de référence.

Take `CCC(=Cc1ccccc1)C(=O)N1CCN(Cc2ccccc2)CC1` [Exemple 9, 1-(3-phényl-2-éthylprop-2-ènoyl)-4-benzylpipérazine]: the “antagonisme de l'hypermotilité induite par la N-allylnormétazocine” value came to 42%.
